One block for each compound: values may come before it.
Assays:
[1] = target: T1, type V adenylyl cyclase (Canis lupus familiaris, UniProt P30803); experiment: P-site inhibition of adenylyl cyclase activity by adenosine and its analogues, transfected CMT membranes; assay type: biochemical, canine; conditions: 0-100 µM; membranes preincubated with 5 mM Mn²⁺ and 100 µM forskolin for 10 minutes
T1 construct: expressed in transfected cells; host or cells: CMT cells, crude membrane preparation
Experimental: Figure 7 depicts the effect of adenosine and its analogues on type V adenylyl cyclase activity. Membrane (transfected with pcDNA112-72 or control) are preincubated with 5 mM Mn²⁺ and 100 µM forskolin for 10 minutes prior to the assay. […] Each point in the average of triplicate determinations.
Another feature of adenylyl cyclase is its inhibition through an allosteric purine binding or P-site (6). […] This is more apparent when the enzyme is first activated by the addition of Mn²⁺, forskolin. The order of potency was as follows: 2'-deoxy-3'-AMD>3'-AMP>2'-deoxyadenosine>adenosine (Figure 7).

[2] = tested on: untransfected CMT cells; experiment: Adenylyl cyclase activity assay, membrane from untransfected CMT cells (control); assay type: biochemical, monkey; conditions: Control (untransfected CMT cell membrane), ± standard error
Experimental: The adenylyl cyclase activity of a cell transfected with the expression vector pcDNA1 carrying cardiac adenylyl cyclase cDNA is assayed as follows. The transfected CMT cells are washed twice with PBS and scraped in three ml of cold buffer containing 50 mM Tris (pH8.0), 1 mM EDTA, 10 µM PMSF (phenylmethylsulfonylfluoride), 100 U leupeptin, and 50 U egg white trypsin inhibitor (ETI) on ice. The membrane is homogenated in Polytron™ (setting 6 for 10 seconds) and is centrifuged at 800 x g for 10 minutes at 4 °C. The supernatant is further centrifuged at 100 x g for 40 minutes at 4 °C. The resultant pellet is resuspended in 50 mM Tris (pH 8.0), 1 mM EDTA, 1 µM PMSF, 50 U leupeptin, and 50 U ETI, to a concentration of 5 µg/µl. This crude membrane solution is used for the adenylyl cyclase asssay.
The adenylyl cyclase assay is performed by the method of Salomon (21). Briefly, the crude membranes from CMT cells are resuspended in a solution containing 1 mM creatine phosphate, 8 µg/ml creatine phophokinase, 4 mM HEPES (pH 8.0), 2 mM MgCl₂, 0.1 mM c-AMP, 0.1 mM ATP, and ³²P-ATP (0.2-5 µCi/assay tube). […] Cyclic-AMP is separated from ATP by passing through Dowex and alumina columns, and the radioactivity is counted by scintillation counter. The protein concentration of the membranes used are measured by Bradford's method (22), with bovine serum albumin as a standard. […]

[3] = target: T2, cardiac adenylyl cyclase (Canis lupus familiaris, UniProt P30803); experiment: Adenylyl cyclase activity assay (method of Salomon), crude membranes of CMT cells transfected with pcDNA113-72; assay type: biochemical, canine; conditions: for fold more stimulation than the control: transfected vs untransfected control, 100 µM forskolin
T2 construct: The expression vector containing the full length cDNA is designated pcDNA113-72; expressed in transfected cells; host or cells: monkey kidney CMT cells (COS derivative), transient transfection with pcDNA113-72, crude membrane preparation
Excerpt: Biochemical characterization of the protein product encoded by this cDNA is obtained using a CMT cell-expression system. The CMT cell is a derivative of the COS cell in which expression of the T-antigen is under the control of a metallothionein promoter. Thus the accumulation of T-antigen in the cell is further enhanced by the addition of heavy metal ion in the medium. The adenylyl cyclase cDNA construct (113-72) is cloned into pcDNA 1, a CMV promoter-driven expression vector with an SV40 enhancer-origin of replication element. A crude membrane preparation is prepared from the transfected CMT cells and a variety of agents known to stimulate adenylyl cyclase are examined (Table I). There is a dose-dependent relationship between the amount of plasmid transfected and the resultant adenylyl cyclase activity, both basal and forskolin-stimulated (0-30 µg per transfection). When the plasmid without insert is transfected, the resultant adenylyl cyclase activity is slightly (∼15%) lower than that of mock-transfected cells. All activities are enhanced several-fold in the transfected cells, as compared to controls, with the forskolin-stimulated activity showing the greatest increase in activity (>6-fold increase over control).
In an example of such expression, twenty µg of the purified plasmid pcDNA 113-72 are transfected into the monkey kidney CMT cells using a modified method of Golub et al. (17). Briefly, the cells are grown to 80% confluence in Dulbecco's modification of Eagle's Medium, 10% fetal calf serum, 2 mM glutamine, 4.5 mg/ml glucose, 10 µg/ml streptomycin sulfate and 60 µg/ml penicillin K. After washing with PBS twice, 0.5 ml of trypsin solution is added. The cells are incubated for 10 minutes, and 20 µg of purified plasmid resuspended in 4 ml of DMEM containing 400 µg/ml DEAE dextran and 0.1 mM chloroquine is added. The cells are incubated for four hours followed by 10% DMSO shock for two minutes. After washing with PBS twice, the induction media, which contains 10% fetal calf serum (FCS), 2 mM glutamine, […], 2 mM penicillin and streptomycin, and 1 µM CdCl₂, 0.1 µM ZnCl₂ in DMEM, is added. The plate is incubated at 37 °C for 72 hours before harvesting.
The biochemical property of this cardiac adenylyl cyclase is examined in a transient expression system using CMT cells (a derivative of COS cells). CMT cells contain T-antigen driven by a methalothionein promoter in the genome. Thus by induction with heavy metal ion in the medium, CMT cells could produce more T-antigen than COS cells. A 4.3 kb fragment of the adenylyl cyclase cDNA (#113-72) containing the whole coding sequence is inserted into the pcDNA1 plasmid described above (Invitrogen).
The adenylyl cyclase activity of a cell transfected with the expression vector pcDNA1 carrying cardiac adenylyl cyclase cDNA is assayed as follows. The transfected CMT cells are washed twice with PBS and scraped in three ml of cold buffer containing 50 mM Tris (pH8.0), 1 mM EDTA, 10 µM PMSF (phenylmethylsulfonylfluoride), 100 U leupeptin, and 50 U egg white trypsin inhibitor (ETI) on ice. The membrane is homogenated in Polytron™ (setting 6 for 10 seconds) and is centrifuged at 800 x g for 10 minutes at 4 °C. The supernatant is further centrifuged at […] for 40 minutes at 4 °C. The resultant pellet is resuspended in 50 mM Tris (pH 8.0), 1 mM EDTA, 1 µM PMSF, 50 U leupeptin, and 50 U ETI, to a concentration of 5 µg/µl. This crude membrane solution is used for the adenylyl cyclase asssay. […]

[4] = target: T1, type V adenylyl cyclase; experiment: Calcium/calmodulin sensitivity of adenylyl cyclase activity, transfected CMT cell membranes; assay type: biochemical, canine; conditions: 30 µg crude CMT cell membrane; 0-1 mM calcium (CaCl₂); membranes washed with EGTA
Experimental: Figure 6 depicts the effect of calcium on type V adenylyl cyclase activity. Adenylyl cyclase activity (CMT cells transfected with pcDNA113-72 or cardiac sarcolemma) is measured in the presence of increasig concentrations of calcium (0-1 mM). Cardiac sarcolemma is prepared as described (26). Both membrane preparations are first washed with EGTA prior to assay (27). Similar results are obtained in three independent experiments. The efficiency of transfection is confirmed by at least a 4-fold increase in both basal and forskolin-stimulated adenylyl cyclase activities over control.
The calcium/calmodulin sensitivity of this protein is also assessed. […] Thirty µg of the crude CMT cell membrane preparation are incubated in the presence of increasing concentrations of CaCl₂. […] The adenylyl cyclase activity also is assessed in canine cardiac sarcolemma.

[5] = 10 mM sodium fluoride, 100 µM GTPγS

T1 sequence (P30803 82-1265 limits assumed): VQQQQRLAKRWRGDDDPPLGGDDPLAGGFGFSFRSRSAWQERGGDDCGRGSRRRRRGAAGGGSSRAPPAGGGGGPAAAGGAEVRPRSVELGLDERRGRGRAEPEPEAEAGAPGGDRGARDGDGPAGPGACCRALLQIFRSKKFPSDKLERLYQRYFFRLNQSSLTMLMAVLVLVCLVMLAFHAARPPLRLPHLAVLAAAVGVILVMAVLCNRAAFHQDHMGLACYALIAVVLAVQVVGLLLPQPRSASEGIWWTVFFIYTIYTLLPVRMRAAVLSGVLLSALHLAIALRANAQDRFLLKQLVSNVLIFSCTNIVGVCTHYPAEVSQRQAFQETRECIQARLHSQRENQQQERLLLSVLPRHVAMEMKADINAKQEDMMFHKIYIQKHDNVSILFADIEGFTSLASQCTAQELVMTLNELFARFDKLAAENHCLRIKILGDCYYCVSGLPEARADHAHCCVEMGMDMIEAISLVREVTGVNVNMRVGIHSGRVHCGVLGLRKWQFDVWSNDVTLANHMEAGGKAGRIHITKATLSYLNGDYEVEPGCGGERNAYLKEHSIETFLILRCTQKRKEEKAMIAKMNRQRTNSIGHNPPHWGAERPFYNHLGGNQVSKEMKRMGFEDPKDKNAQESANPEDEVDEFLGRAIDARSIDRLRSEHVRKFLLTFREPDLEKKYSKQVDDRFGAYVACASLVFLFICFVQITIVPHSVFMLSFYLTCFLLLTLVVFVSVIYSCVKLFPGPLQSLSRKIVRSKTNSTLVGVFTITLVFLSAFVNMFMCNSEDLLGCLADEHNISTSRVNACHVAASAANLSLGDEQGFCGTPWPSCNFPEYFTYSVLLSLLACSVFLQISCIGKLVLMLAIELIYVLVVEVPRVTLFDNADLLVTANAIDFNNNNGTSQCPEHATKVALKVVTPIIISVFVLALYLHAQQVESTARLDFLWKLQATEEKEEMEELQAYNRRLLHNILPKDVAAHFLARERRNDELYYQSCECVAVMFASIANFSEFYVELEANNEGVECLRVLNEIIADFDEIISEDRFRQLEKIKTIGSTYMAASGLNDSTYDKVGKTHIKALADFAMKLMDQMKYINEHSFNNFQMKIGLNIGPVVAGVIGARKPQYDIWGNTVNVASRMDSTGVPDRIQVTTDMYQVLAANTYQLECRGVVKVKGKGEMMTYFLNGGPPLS
T2 sequence (P30803 82-1265 limits assumed): as above

Compound: Nc1ncnc2c1ncn2[C@H]1C[C@H](OP(=O)(O)O)[C@@H](CO)O1 [2'-deoxy-3'-AMD]
- order of potency of inhibition of adenylyl cyclase activity [1]: 2'-deoxy-3'-AMD>3'-AMP>2'-deoxyadenosine>adenosine

Compound: Nc1ncnc2c1ncn2[C@H]1C[C@H](O)[C@@H](CO)O1 [2'-deoxyadenosine]
- order of potency of inhibition of adenylyl cyclase activity [1]: 2'-deoxy-3'-AMD>3'-AMP>2'-deoxyadenosine>adenosine

Compound: Nc1ncnc2c1ncn2[C@@H]1O[C@H](CO)[C@@H](OP(=O)(O)O)[C@H]1O [3'-AMP]
- order of potency of inhibition of adenylyl cyclase activity [1]: 2'-deoxy-3'-AMD>3'-AMP>2'-deoxyadenosine>adenosine

Compound: Nc1nc2c(ncn2[C@@H]2O[C@H](COP(=O)(O)OP(=O)(O)OP(O)(O)=S)[C@@H](O)[C@H]2O)c(=O)[nH]1 [GTPγS]
- adenylyl cyclase activity, GTPγS ([2]; 100 µM GTPγS): 30± 4.5
- adenylyl cyclase activity, GTPγS ([3]; Transfected CMT cell membranes, 100 µM GTPγS, ± standard error): 84±12.5
- fold more stimulation than the control [3, 5]: 2.8 fold

Compound: [F-].[Na+] [NaF, sodium fluoride]
- adenylyl cyclase activity, NaF ([2]; 10 mM sodium fluoride): 15±3.1
- adenylyl cyclase activity, NaF ([3]; Transfected CMT cell membranes, 10 mM sodium fluoride, ± standard error): 41±4.7
- fold more stimulation than the control [3, 5]: 2.7 fold

Compound: Nc1ncnc2c1ncn2[C@@H]1O[C@H](CO)[C@@H](O)[C@H]1O [adenosine]
- order of potency of inhibition of adenylyl cyclase activity [1]: 2'-deoxy-3'-AMD>3'-AMP>2'-deoxyadenosine>adenosine

Compound: CaCl₂ [calcium]
- effect of calcium on adenylyl cyclase activity [4]: inhibited in a concentration-dependent manner

- adenylyl cyclase activity stimulated over the control ([3]; in the presence of 5 mM manganese): more than 10 fold
Compound: manganese

— patent EP0529622A2, “Cloning and characterization of a cardiac adenylyl cyclase” (AMERICAN CYANAMID COMPANY, priority 1991, dated 1993)
